According to patent publication US9695155B2, “Herbicidal substituted pyrimidinyloxy benzene compounds” (E. I. DU PONT DE NEMOURS AND COMPANY, priority 2013, dated 2017):

Tests used:
ragweed [1] = test: Test A preemergence; type: in vivo, Ambrosia elatior; details: for Plant response rating, Ragweed: 31 g ai/ha, 0 to 100 scale where 0 is no effect and 100 is complete control, visual, approximately 10 days; for Ragweed plant response rating (0 to 100 scale): 125 g ai/ha
Method in brief: (§1)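 Visual injury scored 0–100 (100 = complete control) against untreated controls about 10 days after treatment in a greenhouse. Test chemicals, formulated with surfactant in non-phytotoxic solvent, were sprayed on soil preemergence or on 2-10 cm, one- to two-leaf plants postemergence.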

galium = test: Test A postemergence; type: in vivo, Galium aparine; details: 0 to 100 scale, 0 no effect, 100 complete control
Method in brief: as §1

barnyardgrass [2] = test: Test A postemergence; type: in vivo, Echinochloa crus-galli; details: 0 to 100 scale, 0 no effect, 100 complete control
Method in brief: as §1

blackgrass = test: Test A postemergence; type: in vivo, Alopecurus myosuroides; details: 0 to 100 scale, 0 no effect, 100 complete control
Method in brief: as §1

kochia [3] = test: Test A postemergence; type: in vivo, Kochia scoparia; details: 0 to 100 scale, 0 no effect, 100 complete control
Method in brief: as §1

Italian ryegrass [4] = test: Test A postemergence; type: in vivo, Lolium multiflorum; details: 0 to 100 scale, 0 no effect, 100 complete control
Method in brief: as §1

rice = test: Test B flooded paddy test; type: in vivo, Oryza sativa; details: Flood, 250 g ai/ha; 0 to 100 scale where 0 is no effect and 100 is complete control
Method in brief: (§2)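 2-leaf stage plants; pots flooded to 3 cm, compound added to paddy water, depth maintained. Greenhouse 13–15 d. Visual rating vs untreated controls, 0 (no effect) to 100 (complete control); dash = no result.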

Italian ryegrass [5] = test: Test A preemergence; type: in vivo, Lolium multiflorum; details: for Plant response rating, Ryegrass, Italian: 31 g ai/ha, 0 to 100 scale where 0 is no effect and 100 is complete control, visual, approximately 10 days; for Ryegrass, Italian plant response rating (0 to 100 scale): 125 g ai/ha
Method in brief: as §1

giant foxtail [6] = test: Test A preemergence; type: in vivo, Setaria faberii; details: for Plant response rating, Foxtail, Giant: 31 g ai/ha, 0 to 100 scale where 0 is no effect and 100 is complete control, visual, approximately 10 days; for Foxtail, Giant plant response rating (0 to 100 scale): 125 g ai/ha
Method in brief: as §1

wheat = test: Test A postemergence; type: in vivo, Triticum aestivum; details: 0 to 100 scale, 0 no effect, 100 complete control
Method in brief: as §1

ragweed [7] = test: Test A postemergence; type: in vivo, Ambrosia elatior; details: 0 to 100 scale, 0 no effect, 100 complete control
Method in brief: as §1

barnyardgrass [8] = test: Test A preemergence; type: in vivo, Echinochloa crus-galli; details: for Plant response rating, Barnyardgrass: 31 g ai/ha, 0 to 100 scale where 0 is no effect and 100 is complete control, visual, approximately 10 days; for Barnyardgrass plant response rating (0 to 100 scale, 0 is no effect, 100 is complete control): 125 g ai/ha
Method in brief: as §1

barnyardgrass [9] = test: Test B flooded paddy test; type: in vivo, Echinochloa crus-galli; details: Flood, 250 g ai/ha; 0 to 100 scale where 0 is no effect and 100 is complete control
Method in brief: as §2

giant foxtail [10] = test: Test A postemergence; type: in vivo, Setaria faberii; details: 0 to 100 scale, 0 no effect, 100 complete control
Method in brief: as §1

pigweed [11] = test: Test A preemergence; type: in vivo, Amaranthus retroflexus; details: for Plant response rating, Pigweed: 31 g ai/ha, 0 to 100 scale where 0 is no effect and 100 is complete control, visual, approximately 10 days; for Pigweed plant response rating (0 to 100 scale): 125 g ai/ha
Method in brief: as §1

pigweed [12] = test: Test A postemergence; type: in vivo, Amaranthus retroflexus; details: 0 to 100 scale, 0 no effect, 100 complete control
Method in brief: as §1

sedge, umbrella = test: Test B flooded paddy test; type: in vivo, Cyperus difformis; details: Flood, 250 g ai/ha; 0 to 100 scale where 0 is no effect and 100 is complete control
Method in brief: as §2

corn = test: Test A postemergence; type: in vivo, Zea mays; details: 0 to 100 scale, 0 no effect, 100 complete control
Method in brief: as §1

Heteranthera limosa = test: Test B flooded paddy test; type: in vivo; details: Flood, 250 g ai/ha; 0 to 100 scale where 0 is no effect and 100 is complete control
Method in brief: as §2

kochia [13] = test: Test A preemergence; type: in vivo, Kochia scoparia; details: for Plant response rating, Kochia: 31 g ai/ha, 0 to 100 scale where 0 is no effect and 100 is complete control, visual, approximately 10 days; for Kochia plant response rating (0 to 100 scale): 125 g ai/ha
Method in brief: as §1

Structure (SMILES) | Plant response rating, Ragweed (ragweed [1]) | Ragweed plant response rating (0 to 100 scale) (ragweed [1]) | Plant response rating, Galium (galium; 31 g ai/ha) | Plant response rating, Galium (galium; 125 g ai/ha) | Plant response rating, Barnyardgrass (barnyardgrass [2]; 31 g ai/ha) | Plant response rating, Barnyardgrass (barnyardgrass [2]; 125 g ai/ha) | Plant response rating, Blackgrass (blackgrass; 31 g ai/ha) | Plant response rating, Blackgrass (blackgrass; 125 g ai/ha) | Plant response rating, Kochia (kochia [3]; 31 g ai/ha) | Plant response rating, Kochia (kochia [3]; 125 g ai/ha) | Plant response rating, Ryegrass, Italian (Italian ryegrass [4]; 31 g ai/ha) | Plant response rating, Ryegrass, Italian (Italian ryegrass [4]; 125 g ai/ha) | Plant response rating, Rice (rice) | Plant response rating, Ryegrass, Italian (Italian ryegrass [5]) | Ryegrass, Italian plant response rating (0 to 100 scale) (Italian ryegrass [5]) | Plant response rating, Foxtail, Giant (giant foxtail [6]) | Foxtail, Giant plant response rating (0 to 100 scale) (giant foxtail [6]) | Plant response rating, Wheat (wheat; 31 g ai/ha) | Plant response rating, Wheat (wheat; 125 g ai/ha) | Plant response rating, Ragweed (ragweed [7]; 31 g ai/ha) | other results
CC(C)Oc1cnn(-c2c(C#N)cccc2Oc2ncc(Br)cn2)c1 [Compound 254] | 0 | 0 | 20 | 100 | 10 | 60 | 0 | 60 | 20 | 60 | 0 | 20 | 0 | 0 | 40 | 30 | 90 | 0 | 30 | 10 | Plant response rating, Ragweed (ragweed [7]; 125 g ai/ha): 20; Plant response rating, Barnyardgrass (barnyardgrass [8]): 20; Barnyardgrass plant response rating (0 to 100 scale, 0 is no effect, 100 is complete control) (barnyardgrass [8]): 80; Plant response rating, Barnyardgrass (barnyardgrass [9]): 0; Plant response rating, Foxtail, Giant (giant foxtail [10]; 31 g ai/ha): 10; Plant response rating, Foxtail, Giant (giant foxtail [10]; 125 g ai/ha): 60; Plant response rating, Pigweed (pigweed [11]): 30; Pigweed plant response rating (0 to 100 scale) (pigweed [11]): 90; Plant response rating, Pigweed (pigweed [12]; 31 g ai/ha): 10; Plant response rating, Pigweed (pigweed [12]; 125 g ai/ha): 30; Plant response rating, Sedge, Umbrella (sedge, umbrella): 60; Plant response rating, Corn (corn; 31 g ai/ha): 10; Plant response rating, Corn (corn; 125 g ai/ha): 20; Plant response rating, Ducksalad (Heteranthera limosa): 65; Plant response rating, Kochia (kochia [13]): 20; Kochia plant response rating (0 to 100 scale) (kochia [13]): 80
FC(F)c1cccc(Oc2ncc(Cl)cn2)c1-n1cncc1Br [Compound 259] | 10 | 70 | 70 | 80 | 0 | 30 | 20 | 50 | 60 | 80 | 0 | 10 | 0 | 0 | 0 | 30 | 100 | 0 | 0 | 50 | Plant response rating, Ragweed (ragweed [7]; 125 g ai/ha): 70; Plant response rating, Barnyardgrass (barnyardgrass [8]): 10; Barnyardgrass plant response rating (0 to 100 scale, 0 is no effect, 100 is complete control) (barnyardgrass [8]): 70; Plant response rating, Barnyardgrass (barnyardgrass [9]): 0; Plant response rating, Foxtail, Giant (giant foxtail [10]; 31 g ai/ha): 10; Plant response rating, Foxtail, Giant (giant foxtail [10]; 125 g ai/ha): 40; Plant response rating, Pigweed (pigweed [11]): 70; Pigweed plant response rating (0 to 100 scale) (pigweed [11]): 100; Plant response rating, Pigweed (pigweed [12]; 31 g ai/ha): 70; Plant response rating, Pigweed (pigweed [12]; 125 g ai/ha): 90; Plant response rating, Sedge, Umbrella (sedge, umbrella): 75; Plant response rating, Corn (corn; 31 g ai/ha): 0; Plant response rating, Corn (corn; 125 g ai/ha): 10; Plant response rating, Ducksalad (Heteranthera limosa): 70; Plant response rating, Kochia (kochia [13]): 20; Kochia plant response rating (0 to 100 scale) (kochia [13]): 80
N#Cc1cccc(Oc2ncc(Cl)cn2)c1-n1ccnc1 [Compound 261] | 0 | 0 | 30 | 50 | 0 | 0 | 0 | 0 | 50 | 70 | 0 | 0 | 0 | 0 | 0 | 0 | 0 | 0 | 0 | 20 | Plant response rating, Ragweed (ragweed [7]; 125 g ai/ha): 30; Plant response rating, Barnyardgrass (barnyardgrass [8]): 0; Barnyardgrass plant response rating (0 to 100 scale, 0 is no effect, 100 is complete control) (barnyardgrass [8]): 0; Plant response rating, Barnyardgrass (barnyardgrass [9]): 0; Plant response rating, Foxtail, Giant (giant foxtail [10]; 31 g ai/ha): 0; Plant response rating, Foxtail, Giant (giant foxtail [10]; 125 g ai/ha): 10; Plant response rating, Pigweed (pigweed [11]): 0; Pigweed plant response rating (0 to 100 scale) (pigweed [11]): 0; Plant response rating, Pigweed (pigweed [12]; 31 g ai/ha): 30; Plant response rating, Pigweed (pigweed [12]; 125 g ai/ha): 60; Plant response rating, Sedge, Umbrella (sedge, umbrella): 0; Plant response rating, Corn (corn; 31 g ai/ha): 0; Plant response rating, Corn (corn; 125 g ai/ha): 0; Plant response rating, Ducksalad (Heteranthera limosa): 0; Plant response rating, Kochia (kochia [13]): 0; Kochia plant response rating (0 to 100 scale) (kochia [13]): 0
Cc1cc(C)n(-c2ccccc2Oc2ncc(Cl)cn2)n1 [Compound 264] | 0 | 0 | 0 | 0 | 0 | 0 | 0 | 0 | 0 | 0 | 0 | 0 | 0 | 0 | 0 | 0 | 0 | 0 | 0 | 0 | Plant response rating, Ragweed (ragweed [7]; 125 g ai/ha): 0; Plant response rating, Barnyardgrass (barnyardgrass [8]): 0; Barnyardgrass plant response rating (0 to 100 scale, 0 is no effect, 100 is complete control) (barnyardgrass [8]): 0; Plant response rating, Barnyardgrass (barnyardgrass [9]): 0; Plant response rating, Foxtail, Giant (giant foxtail [10]; 31 g ai/ha): 0; Plant response rating, Foxtail, Giant (giant foxtail [10]; 125 g ai/ha): 0; Plant response rating, Pigweed (pigweed [11]): 0; Pigweed plant response rating (0 to 100 scale) (pigweed [11]): 0; Plant response rating, Pigweed (pigweed [12]; 31 g ai/ha): 0; Plant response rating, Pigweed (pigweed [12]; 125 g ai/ha): 0; Plant response rating, Sedge, Umbrella (sedge, umbrella): 0; Plant response rating, Corn (corn; 31 g ai/ha): 0; Plant response rating, Corn (corn; 125 g ai/ha): 0; Plant response rating, Ducksalad (Heteranthera limosa): 0; Plant response rating, Kochia (kochia [13]): 0; Kochia plant response rating (0 to 100 scale) (kochia [13]): 0
